Results as given in paper PMC5740381 (Antimicrobial Agents and Chemotherapy, 2017).

Columns and labels:
Assay in all cases: Human protease biochemical assay
Settings in all cases: read-out: Mean IC50 ± SD
[1] = biological target: T1, Cathepsin B (Homo sapiens, UniProt P07858)
T1 construct: purchased Sigma-Aldrich
Description: (§1) […]; catalog number M9771; Sigma-Aldrich), and 0.05 U/ml elastase (excitation wavelength = 370 nm, emission wavelength = 460 nm); (ii) for chymase, 0.4 M Tris, pH 8.0, 1.8 M NaCl, 9% dimethyl sulfoxide, 0.4 mM substrate (Suc-AAF-AMC; catalog number S8758; Sigma-Aldrich), and 0.063 U/ml chymase (excitation wavelength = 370 nm, emission wavelength = 460 nm); (iii) for cathepsin B, 50 mM MES (morpholineethanesulfonic acid), pH 6.0, 50 mM NaCl, 2 mM EDTA, 0.1% Triton X-100, 0.4 mM substrate (Z-RR-AMC; catalog number C5429; Sigma-Aldrich), and 1.7 μg/ml cathepsin B (excitation wavelength = 370 nm, emission wavelength = 460 nm); (iv and v) for chymotrypsin types II and VII, 50 mM Tris, pH 8, 10 mM CaCl2, 0.1% Triton X-100, 0.25 mM substrate (Suc-AAF-AMC; catalog number S8758; Sigma-Aldrich), and 0.5 nM chymotrypsin type II or type VII (excitation wavelength = 370 nm, emission wavelength = 460 nm); (vi) for kallikrein, 50 mM Tris, pH 7.4, 0.5 mM EDTA, 0.05% Tween 20, 150 mM NaCl, 0.35 mM substrate (H-Pro-Phe-Arg-AMC; catalog number I-1295; Bachem), and 2 nM kallikrein (excitation wavelength = 355 nm, emission wavelength = 460 nm); and (vii) for urokinase, 50 mM Tris, pH 7.4, 0.15 M NaCl, 0.5% Pluronic F-68, 0.2 mM substrate (pyro-Glu Arg-p-nitroanilide-HCl; catalog number S-2444; Diapharma), and 3 nM urokinase (absorbance at 405 nm).

[2] = biological target: T2, Chymase (Homo sapiens, UniProt P23946)
T2 construct: purchased Sigma-Aldrich
T2 sequence (P23946 22-247): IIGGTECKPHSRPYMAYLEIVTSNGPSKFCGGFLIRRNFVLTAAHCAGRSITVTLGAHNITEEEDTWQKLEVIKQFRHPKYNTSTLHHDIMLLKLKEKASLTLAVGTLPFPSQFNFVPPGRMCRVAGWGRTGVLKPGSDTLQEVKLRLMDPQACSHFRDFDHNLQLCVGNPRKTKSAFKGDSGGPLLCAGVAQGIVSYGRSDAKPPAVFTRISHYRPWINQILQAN
Description: as §1

[3] = biological target: T3, Chymotrypsin type II (Bos taurus, UniProt P00766)
T3 construct: purchased Sigma-Aldrich
Description: as §1

[4] = biological target: T4, Chymotrypsin type VII (Bos taurus, UniProt P00766)
T4 construct: purchased Sigma-Aldrich
Description: as §1

[5] = biological target: T5, Elastase (Homo sapiens, UniProt P08246)
T5 construct: purchased Sigma-Aldrich
T5 sequence (P08246 30-247 limits assumed): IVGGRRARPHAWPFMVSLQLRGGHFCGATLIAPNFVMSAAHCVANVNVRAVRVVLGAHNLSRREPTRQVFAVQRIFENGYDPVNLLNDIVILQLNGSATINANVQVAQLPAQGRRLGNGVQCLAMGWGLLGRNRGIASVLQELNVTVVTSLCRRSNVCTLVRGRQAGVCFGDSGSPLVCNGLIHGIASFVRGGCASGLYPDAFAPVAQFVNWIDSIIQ
Description: as §1

[6] = biological target: T6, Urokinase (Homo sapiens, UniProt P00749)
T6 construct: purchased Sigma-Aldrich
Description: as §1

Measured: IC50

CC(C)(C)[C@@H]1NC(=O)O[C@@H]2CCC[C@H]2OC/C=C/C(F)(F)c2nc3ccccc3nc2O[C@@H]2C[C@@H](C(=O)N[C@]3(C(=O)NS(=O)(=O)C4(C)CC4)C[C@H]3C(F)F)N(C2)C1=O [Glecaprevir, (3aR,7S,10S,12R,21E,24aR)-7-tert-butyl-N-[(1R,2R)-2-(difluoromethyl)-1-{[(1-methylcyclopropyl)sulfonyl]carbamoyl}cyclopropyl]-20,20-difluoro-5,8-dioxo-2,3,3a,5,6,7,8,11,12,20,23,24a-dodecahydro-1H,10H-9,12-methanocyclopenta[18,19][1,10,17,3,6]trioxadiazacyclononadecino[11,12-b]quinoxaline-10-carboxamide]
> 200 µM: all assays above
